According to patent publication US20150216867A1, “COMPOUNDS FOR USE IN GASTRIC COMPLICATION” (NOVARTIS AG, priority 2012, published 2015):
Where a name gives a salt, the structure may show the parent alone.

What was measured:
[1] = tested on: cultured primary DRG cells; assay: Dorsal root ganglia stimulation with acid: low pH (6.1) induced CGRP release; type: cell-based; conditions: read-out: IC50, block of increased CGRP release
Description: c) Dorsal Root Ganglia Stimulation with Acid—Blockade of the Effect with GPR4 Antagonist Low pH (6.1) induces a significant Calcitonin Gene-Related Peptide (CGPR) release in cultured primary DRG cells.

[2] = tested on: neutrophil recruitment into the BAL fluid; assay: Neutrophil infiltration into mouse BAL fluid, cigarette smoke exposure model; type: in vivo; conditions: WT mice, cigarette smoke 2 weeks, 90 mg/kg po
Protocol: e) Effect of GPR4 Antagonist on Neurophil Infiltration into Mouse BAL Fluid
The role of GPR4 on neutrophil recruitment was determined in the cigarette smoke exposure model. GPR4 WT (wild type) and KO (knockout) mice, and WT treated with the compounds of example No 41 and example No 40 (90 mg/kg po) were exposed to five cigarettes for 2 weeks. The mice were sacrificed 24 hours following last smoke exposure and bronchoalveolar lavage (BAL) was performed.
The following table summarizes the results obtained by the GPR4-mediated inhibition of neutrophil recruitment into the BAL fluid: […]

human GPR4 [3] = biological target: T1, human GPR4 (Homo sapiens, UniProt P46093); assay: Cell-based assay for human GPR4 activity: pH-induced cAMP formation (HTRF) in HeLa cells; set-up: expressed in transfected cells; conditions: HeLa cells stably expressing human GPR4, pH-induced cAMP formation
Protocol: HeLa cells stably expressing human GPR4 were established by transfecting the cells with a construct containing the human GPR4 coding sequence. The cells were grown in Dulbecco's Modified Eagle Medium (DMEM)/HAM's tissue culture medium F12 (HAM's F12) supplemented with 10% fetal calf serum (FCS), 100 u/ml penicillin, 100 μg/ml streptomycin and 400 μg/ml G418 and 10 mM Hepes pH 8.0. pH-induced formation of cAMP was determined using the homogeneous time resolved fluorescence (HTRF) technology as provided by CisBio Inc. The cells were seeded in 384-well plates and cultured for 24 hours at 37° C., 5% CO2 before performing the assay. Medium was removed and 10 μl buffer A (Hepes buffered saline (HBS), 10 mM Hepes, pH 8, 2 mM 3-Isobutyl-1-methylxanthin (IBMX)) was added. For compound testing, buffer A with 2× concentrated compounds was used. Cells were incubated for 15 min at room temperature. 10 μl buffer B (HBS, 30 mM Hepes, specific pH) was added to reach the appropriate final pH for stimulation (see below) and incubation was continued for 15 min at room temperature.
HBS: 130 mM NaCl, 0.9 mM NaH2PO4, 5.4 mM KCl, 0.8 mM MgSO4, CaCl2 1.8 mM, 25 mM glucose, 10-30 mM Hepes. Adjustment of HBS buffers:
Compounds were diluted from fresh stock solutions at 10 mM in DMSO to 2 mM and then used for serial dilutions in DMSO.

human GPR4 [4] = biological target: T1, human GPR4; assay: Human GPR4 binding assay ([3H]4(example 39) radioligand, membranes of 300.19 cells); set-up: c-myc (N); expressed in transfected cells
Protocol: (§1) Cells were grown in T175 flasks to a density of about 1×10^6 cells/mL in growth medium. The cells were harvested by centrifugation (3000 rpm for 30 minutes at 4° C.) and the pellet resuspended in ice cold buffer A (20 mM HEPES pH 7.8, 10 mM EDTA, 100 mM NaCl, 1 tab/40 mL protease inhibitor complete). […] The homogenate was centrifuged at 18000 rpm for 50 min at 4° C. and the membrane protein pellet resuspended in cold buffer A using the Polytron (2×20 seconds). The protein concentration is determined using the Bio Rad Protein Assay and human IgG as standard. The volume of the membrane protein suspension is adjusted to a final concentration of about 2 mg protein/mL. The suspension is then once again homogenized (Polytron) on ice at 25000 rpm for 20 seconds before being aliquoted and stored at −80° C.
(§2) Radio Ligand Binding Assay: Serial dilutions of compounds (stock in 10 mM DMSO) are prepared by first diluting the compounds in DMSO followed by a 1:50 dilution into assay buffer (10 mM HEPES, pH 8.0, 100 mM NaCl, 5 mM MgCl2, 1 mM CaCl2, 0.5% fatty acid-free BSA, 0.05% Tween-20). […] The desired amount of membranes (20 μg/well) is diluted with assay buffer. […] 100 μL of the membrane-suspension is added and the plate stirred for 60 minutes. […] Finally the plate is counted for 2 min/well in a TopCount NXT instrument (Packard Instruments). The data are analyzed using the GraphPad Prism™ software.

human GPR4 [5] = biological target: T1, human GPR4; assay: Human GPR4 binding assay with additional human serum albumin (4% HSA); set-up: c-myc (N); expressed in transfected cells; conditions: binding assay with additional 4% human serum albumin
Protocol: as §1
as §2, with “software. […]” for “software.”

T1 sequence (P46093 whole entry): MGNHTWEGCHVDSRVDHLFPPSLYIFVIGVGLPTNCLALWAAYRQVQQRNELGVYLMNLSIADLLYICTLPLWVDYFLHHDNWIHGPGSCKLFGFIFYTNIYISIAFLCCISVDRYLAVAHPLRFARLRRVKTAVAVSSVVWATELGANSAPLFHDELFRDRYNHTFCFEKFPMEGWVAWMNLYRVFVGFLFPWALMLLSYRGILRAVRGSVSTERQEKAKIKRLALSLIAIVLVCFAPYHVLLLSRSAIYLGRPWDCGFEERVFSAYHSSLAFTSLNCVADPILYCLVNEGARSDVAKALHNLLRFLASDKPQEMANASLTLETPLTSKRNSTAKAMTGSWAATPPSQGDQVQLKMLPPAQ

Compound | IC50 [1] | recruitment of neutrophils [2] | also measured
CCc1nn2c(C)cc(C)nc2c1Cc1ccc(/C=C/CN2CCN(C[C@@H](O)CO)CC2)cc1 [Example 17, (R)-3-(4-{(E)-3-[4-(2-Ethyl-5,7-dimethyl-pyrazolo[1,5-a]pyrimidin-3-ylmethyl)-phenyl]-allyl}-piperazin-1-yl)-propane-1,2-diol dihydrochloride] | 120 nM | – | –
CCc1nc2c(C)cc(C)nc2n1Cc1ccc(/C=C/CN2CCN(C(C)C)CC2)cc1 [Example 40, 2-Ethyl-3-{4-[(E)-3-(4-isopropyl-piperazin-1-yl)-propenyl]-benzyl}-5,7-dimethyl-3H-imidazo[4,5-b]pyridine] | – | significantly reduced | –
CCc1nc2c(C)cc(C)nc2n1Cc1ccc(/C=C/CN2CCC(N3CCCCC3)CC2)cc1 [Example 41, 1′-{(E)-3-[4-(2-Ethyl-5,7-dimethyl-imidazo[4,5-b]pyridin-3-ylmethyl)-phenyl]-allyl}-[1,4′]bipiperidinyl dihydrochloride] | – | significantly reduced | –
CCc1nn2c(C)cc(C)nc2c1Cc1ccc(-c2nnc(C3CCNCC3)o2)cc1 [Example 35, 2-Ethyl-5,7-dimethyl-3-[4-(5-piperidin-4-yl-[1,3,4]oxadiazol-2-yl)-benzyl]-pyrazolo[1,5-a]pyrimidine] | 530 nM | – | –
CCc1nn2c(C)cc(C)nc2c1Cc1ccc(/C=C/C(=O)N2CCNCC2)cc1 [Example 18, (E)-3-[4-(2-Ethyl-5,7-dimethyl-pyrazolo[1,5-a]pyrimidin-3-ylmethyl)-phenyl]-1-piperazin-1-yl-propenone hydrochloride] | – | – | IC50 (human GPR4 [3]): 43 nM; IC50 (human GPR4 [4]): 81 nM; IC50 (human GPR4 [5]): 67 nM
